PMC11218446, “Antibacterial efficacy and membrane mechanism of action of the Serratia-derived non-ionic lipopeptide, serrawettin W2-FL10” (Microbiology Spectrum, 2024)
Where “and” joins values, the source holds several entries; their conditions need not be identical. Equal values may be shown once. Marks after values point to notes of the source that are not given here.

How the values were obtained:
[1] = Oligomer detection by ESI-HRMS; format: physicochemical; conditions: MaxEnt 3 mass spectrum (Fig. 1C)
three S. aureus strains [2] = assay: Membrane permeability assay, propidium iodide, summary; format: cell-based, Staphylococcus aureus; conditions: discussion
Description: The membrane permeability capabilities of the W2-FL10 against the S. aureus strains were determined using PI ([56]). Briefly, black 96-well plates were prepared with W2-FL10 at 6.25, 12.5, and 25 µg/mL, while 4–16 µg/mL of melittin was used as a positive permeability control, and the plates were dried as described in the “Antibacterial activity: broth microdilution assay” section. The S. aureus strains were inoculated into MHB, grown to mid-log phase (OD600 of 0.5–0.6), and diluted to OD600 of 0.3. PI (stock concentration of 1 mg/mL in analytical quality H2O) was added to the cell suspension to a final concentration of 10 µg/mL and cells were incubated in the dark at room temperature for 20 min. Thereafter, 100 µL of OD-adjusted PI cells in the mid-log phase were dispensed into each well. Sterile broth and the OD-adjusted inoculum with PI were included as a non-fluorescent control, while sterile broth with PI was included as a sterility control, and melittin was included as membrane depolarization control. […] Fluorometric readings of the plate were conducted in 4-min intervals over 60 min (readings began ~60 s after cells were added to the plate) using a Tecan Spark at 535 nm excitation wavelength and 617 nm emission wavelength.
The leakage kinetics or PI permeabilization kinetic was assessed using a rate parameter of ΔPI fluorescence per minute. […]

MRSA Xen 30 = assay: Scanning electron microscopy; format: cell-based, Staphylococcus aureus; conditions: 25 µg/mL, 1 h
Description: (§1) SEM was performed to visualize the bacterial membrane morphology following treatment ([24]). Briefly, the S. aureus strains were prepared as described in the “Antibacterial activity: broth microdilution assay” section and harvested by centrifugation at 3,000 rpm for 10 min. The cells were re-suspended in PBS at a dilution of ~10^7 CFU/mL (OD600 = 0.4). The diluted cultures were then treated with 25 µg/mL of W2-FL10, for 1 h, while cells without W2-FL10 were used as a control. Specimens were resuspended in 2.5% (vol/vol) glutaraldehyde solution in 0.1 M PBS (pH 7.2) and fixed for approximately 24 h. After the primary fixation, bacterial cells were pelleted and rinsed with PBS. Dehydration of samples through an ethanol series (30%, 50%, 70%, 90%, 95%, and 100% for 10 min each) was performed, followed by filtration onto a filter paper (pore size of 0.2 µm), which was glued onto an aluminum grid (11 mm diameter). The grid was dried with hexamethyldisilazane and coated with gold-palladium alloy. The grids were then inspected with a Tescan MIRA3 RISE Scanning Electron Microscope at the Electron Microscope Unit of the University of Cape Town.

S. aureus RN4220 = assay: Scanning electron microscopy; format: cell-based, Staphylococcus aureus; conditions: 25 µg/mL, 1 h; primarily one large lesion per cell
Description: as §1

S. aureus ATCC 25923 = assay: Scanning electron microscopy; format: cell-based, Staphylococcus aureus; conditions: 25 µg/mL, 1 h
Description: as §1

[3] = test system: Chinese hamster ovarian (CHO) cell line; assay: Mammalian cell cytotoxicity, MTT assay; conditions: CHO cells
Description: (§2) To determine the biocompatibility of W2-FL10 as a potential therapeutic agent, the in vitro cytotoxicity of W2-FL10 against the CHO cell line ([50]) was determined over 48 h by the Drug Discovery and Development Centre at the University of Cape Town, as previously described by Mosmann ([51]). Briefly, W2-FL10 was prepared to a 10 mM stock solution in 100% DMSO and dilutions were prepared in growth media. The CHO cell line density of 10^5 cells/well in 96-well plates and allowed to attach for 24 h. Thereafter, the compound was added to the 96-well plates at various concentrations from 50 µM down to 16 nM and incubated for a further 48 h. At 44 h, MTT was added to the wells, and the plates were read 4 h later at 540 nm on a spectrophotometer. […] Finally, cell inhibition was plotted against concentration and the 50% lethal concentration (LC50) parameter and a minimum lethal concentration (MLC90) were obtained as described for the dose responses against bacterial targets above (equation 1).

[4] = Mammalian cell cytotoxicity, MTT assay; conditions: CHO cells
Description: as §2

three S. aureus strains [5] = assay: Membrane depolarization assay, DiSC3(5), summary; format: cell-based, Staphylococcus aureus; conditions: abstract
Description: The membrane depolarization capability (ability to disrupt membrane potential) of the W2-FL10 against S. aureus ATCC 25923, S. aureus RN4220, or MRSA Xen 30 was determined using the voltage-sensitive fluorescent probe, DiSC3(5) ([20]). Briefly, black 96-well plates were prepared with W2-FL10 at 12.5 µg/mL and 25 µg/mL, while 4 and 8 µg/mL of melittin were used as a positive depolarization control, and the plates were air dried as described in the “Antibacterial activity: broth microdilution assay” section. The S. aureus strains were inoculated into MHB and grown to the mid-log phase (OD600 of 0.5–0.6). Cells were harvested by centrifugation at 3,000 rpm for 10 min and resuspended in HEPES buffer (5 mM, pH 7.4, containing 20 mM glucose; 100 mM KCl) to OD600 of 0.05. Thereafter, DiSC3(5) (stock concentration of 400 µM in 100% DMSO) was added to the cell suspension to a final concentration of 0.4 µM, and cells were incubated in the dark at room temperature for 40 min. Cell suspensions (100 µL) were then dispensed into the wells of the black 96-well plate. […] Fluorometric readings of the plate were conducted at 1 min intervals over 12 min (readings began 60 s after cells were added to the plates) using a Tecan Spark at 622 nm excitation wavelength and 670 nm emission wavelength. […]

[6] = Lipophilicity, miniaturized shake-flask log D; format: physicochemical; conditions: 96-well, 1-octanol/phosphate buffer pH 7.4, shaken 2 h at 25°C, HPLC-UV
Description: The lipophilicity of the compound was measured using a miniaturized shake-flask method, in 96-well plate format ([48]). Briefly, equal volumes of 1-octanol and phosphate buffer at pH 7.4 were added to each compound in a deep well plate. The plate was shaken vigorously for 2 h at 25°C. The phases were then carefully separated and transferred to another plate. Analysis was performed by HPLC-UV and log D values were determined from the peak areas of the compound in octanol and buffer phases.

CCCCCCCC1CC(=O)N[C@H](CC(C)C)C(=O)N[C@@H](CO)C(=O)N[C@@H]([C@@H](C)O)C(=O)N[C@H](Cc2ccccc2)C(=O)N[C@@H](CC(C)C)C(=O)O1 (stereo partly shown) [W2-FL10, serrawettin W2-FL10]
oligomers detected [1]: dimers, trimers, tetramers, and pentamers | time within which delayed leakage of PI occurred (three S. aureus strains [2]): 30 to 45 min | morphology by SEM, in words (MRSA Xen 30): Minor morphological changes | morphology by SEM, in words (S. aureus RN4220): more significant cell damage | morphology by SEM, in words (S. aureus ATCC 25923): Minor morphological changes | MLC, minimum lethal concentration ([3]; MTT, 48 h, MLC90): 36.6 (50.0)^e μg/mL | ICF (MIC/IC50)^2 ([3]; from MLC and LC50): 1.6 | CC50 at 48 h [4]: 40 µM and 29 µg/mL | time within which membrane potential was dissipated (three S. aureus strains [5]): ≤ 12 min | logD at 2 h [6]: 2.5
